This passage reports TGI results from PubChem BioAssay (NCI).

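Method: 48-hour compound exposure of cells in 96-well plates, five concentrations, linear interpolation of endpoints. TGI: concentration producing complete growth inhibition.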

Test systems include RXF 393 renal; KM12 colon; SF-268 CNS; MDA-N; HCT-116 colon; EKVX NSCLC; A549 NSCLC; HCC-2998 colon; SK-MEL-5 melanoma; SW-620 colon; SNB-75 CNS; BT-549 breast; PC-3 prostate; CAKI-1 renal; A498 renal; SF-295 CNS.
Common to all, as to experiment: NCI tumour cell line growth inhibition, 48 h

`CC(C)=CCS(=O)c1ccccc1NC1=CC(=O)CC(C)(C)C1` (stereo not given): the TGI in the test with RXF 393 renal, with KM12 colon, in the test on SF-268 CNS, in the test with MDA-N, in the test on HCT-116 colon and in the test with EKVX NSCLC was above 100 µM throughout. Further, the TGI in the test on A549 NSCLC, with HCC-2998 colon, in the test on SK-MEL-5 melanoma, with SW-620 colon, in the test on SNB-75 CNS and in the test with BT-549 breast was above 100 µM in each case. Besides, the TGI in the test on PC-3 prostate, in the test on CAKI-1 renal and in the test with A498 renal was above 100 µM in each case.
In the case of `COC1=C(Br)[C@H](O)[C@@]2(C=C1Br)CC(C(=O)NCCCCCN=C(N)N)=NO2`, the TGI in the test on RXF 393 renal, with KM12 colon, with SF-268 CNS, in the test on SF-295 CNS, in the test on MDA-N and with HCT-116 colon was above 10 µM each time. Besides, the TGI in the test on A549 NSCLC, in the test with HCC-2998 colon, in the test on SK-MEL-5 melanoma, in the test on SW-620 colon, with SNB-75 CNS and with BT-549 breast was above 10 µM in each case. Besides, the TGI with PC-3 prostate and in the test on A498 renal was above 10 µM each time.
Consider `O=c1cc(-c2ccccc2)[nH]c2cc3c(cc12)OCO3`, for which the TGI with RXF 393 renal is 17.2 µM; in the test on KM12 colon it was above 93.1 µM; in the test on SF-268 CNS it was above 17.5 µM; in the test on SF-295 CNS, above 42.3 µM; in the test with MDA-N, above 100 µM; in the test with HCT-116 colon it was above 29.8 µM. Besides, the TGI in the test on EKVX NSCLC is above 100 µM; in the test on A549 NSCLC, above 100 µM; in the test on HCC-2998 colon, 55.6 µM; in the test on SK-MEL-5 melanoma, 51.3 µM; in the test with SW-620 colon, above 100 µM; in the test with SNB-75 CNS it was 43.3 µM. Besides, the TGI with BT-549 breast was above 100 µM; in the test with PC-3 prostate, above 100 µM; with A498 renal, 63.1 µM.
Regarding `CCOC(=O)C(N)CSC(=O)NC` (stereo not given), the TGI came out at 337 µM in the test on RXF 393 renal; 460 µM with KM12 colon; 443 µM with SF-268 CNS; 592 µM in the test with SF-295 CNS; 116 µM in the test with MDA-N; 321 µM in the test with HCT-116 colon. For the same compound, the TGI in the test on EKVX NSCLC stood at 546 µM; in the test with A549 NSCLC, 836 µM; with HCC-2998 colon it was 644 µM; in the test with SK-MEL-5 melanoma, 393 µM; with SW-620 colon, 308 µM; with SNB-75 CNS, 598 µM. In addition, the TGI with BT-549 breast came out at 346 µM; with PC-3 prostate, 455 µM; in the test with CAKI-1 renal, 461 µM; with A498 renal it was 594 µM.
On to `CCN1c2nc3ccccc3nc2N(CC)c2nc3ccccc3nc21`, for which the TGI in the test with RXF 393 renal, in the test with KM12 colon, with SF-268 CNS, in the test on SF-295 CNS, in the test with MDA-N and in the test with HCT-116 colon was above 100 µM in each case. In addition, the TGI in the test on EKVX NSCLC, with A549 NSCLC, in the test on HCC-2998 colon, in the test with SK-MEL-5 melanoma, in the test with SW-620 colon and in the test with BT-549 breast was above 100 µM in each case. In addition, the TGI in the test on PC-3 prostate, with CAKI-1 renal and with A498 renal was above 100 µM in each case.
As to `O=C(O)c1ccc(NNc2cc(=O)[nH]c(=O)[nH]2)cc1`, the TGI with RXF 393 renal, in the test on KM12 colon, with SF-268 CNS, in the test with SF-295 CNS, in the test on MDA-N and in the test with HCT-116 colon was above 100 µM each time. Moreover, the TGI in the test with EKVX NSCLC, in the test on A549 NSCLC, in the test on HCC-2998 colon, in the test with SK-MEL-5 melanoma, in the test with SW-620 colon and with SNB-75 CNS was above 100 µM in each case. The results for the TGI with BT-549 breast, in the test with PC-3 prostate and in the test on A498 renal were above 100 µM, 83.7 µM and above 100 µM, respectively.
As for `O=C(c1ccccc1)c1c(-c2ccccc2)[nH]n(-c2ccc([N+](=O)[O-])cc2)c(=O)c1=O`, the TGI with RXF 393 renal, with KM12 colon, in the test on SF-268 CNS, in the test with SF-295 CNS, in the test with MDA-N and in the test with HCT-116 colon was above 100 µM throughout. Besides, the TGI in the test with EKVX NSCLC is above 100 µM; in the test with A549 NSCLC, above 100 µM; in the test on HCC-2998 colon, above 100 µM; with SK-MEL-5 melanoma it was above 100 µM; in the test with SW-620 colon it was above 100 µM; in the test on BT-549 breast, 98.8 µM. The TGI with PC-3 prostate, in the test with CAKI-1 renal and in the test with A498 renal was above 100 µM throughout.
For the compound `Clc1ccc(Cl)c(Nc2ccnc(SCc3ccccc3)n2)c1`, the TGI in the test on RXF 393 renal is 79.4 µM; in the test with KM12 colon, above 100 µM; with SF-268 CNS, above 100 µM; in the test with SF-295 CNS it was above 100 µM; in the test with MDA-N, above 100 µM; in the test with HCT-116 colon it was above 100 µM. The TGI in the test with EKVX NSCLC, with A549 NSCLC, in the test on SK-MEL-5 melanoma, in the test on SW-620 colon, in the test with SNB-75 CNS and in the test on BT-549 breast was above 100 µM throughout. In addition, the TGI with PC-3 prostate, with CAKI-1 renal and in the test with A498 renal was above 100 µM throughout.
On to `CC(=O)N(C(=O)CC(=O)N/N=C\c1ccc(Br)c(N(CCC#N)CCC#N)c1)c1ccc(Cl)cc1`, for which the TGI in the test on RXF 393 renal, in the test on KM12 colon, in the test on SF-268 CNS, in the test with SF-295 CNS, with MDA-N and in the test on HCT-116 colon was above 100 µM in each case. In addition, the TGI with EKVX NSCLC, with A549 NSCLC, in the test on HCC-2998 colon, in the test on SW-620 colon, in the test with SNB-75 CNS and with BT-549 breast was above 100 µM throughout. In addition, the TGI in the test with PC-3 prostate, in the test with CAKI-1 renal and with A498 renal was above 100 µM each time.
For the compound `N#Cc1c(-c2ccccc2)[nH]c2ccccc2c1=O`, the TGI is above 100 µM with RXF 393 renal; above 100 µM in the test on KM12 colon; above 100 µM in the test on SF-268 CNS; 66.7 µM in the test with SF-295 CNS; above 100 µM with MDA-N; above 100 µM in the test on HCT-116 colon. The TGI is above 100 µM in the test on EKVX NSCLC; above 100 µM in the test on A549 NSCLC; above 100 µM with SK-MEL-5 melanoma; above 100 µM with SW-620 colon; 38.3 µM in the test with SNB-75 CNS; 69.8 µM with BT-549 breast. Also, the TGI in the test on PC-3 prostate, with CAKI-1 renal and with A498 renal was above 100 µM throughout.
For `CC(=O)c1csc2c1C(=O)c1scc(C(C)=O)c1C2=O`, the TGI is 3.9 µM in the test on RXF 393 renal; 3.53 µM with KM12 colon; 3.44 µM with SF-268 CNS; 3.09 µM in the test on SF-295 CNS; 0.319 µM with MDA-N; 4.85 µM in the test with HCT-116 colon. Further, the TGI worked out at 3.36 µM in the test on EKVX NSCLC; 4.19 µM in the test on A549 NSCLC; 2.77 µM with SK-MEL-5 melanoma; 3.73 µM with SW-620 colon; 4.54 µM with SNB-75 CNS; 3.18 µM in the test on BT-549 breast. Moreover, the TGI came to 7.49 µM with PC-3 prostate, 4.1 µM in the test with CAKI-1 renal and 2.93 µM in the test on A498 renal.
Turning to `O=C1/C(=C\c2ccc([N+](=O)[O-])o2)SC2N=C(COc3ccc(Cl)cc3)NN12` (stereo not given), the TGI in the test on RXF 393 renal came out at 31.6 µM; in the test on KM12 colon it was 28.4 µM; in the test with SF-268 CNS, 13.6 µM; in the test on SF-295 CNS, 34.1 µM; with MDA-N it was 14.3 µM; with HCT-116 colon, 14.5 µM. The TGI with EKVX NSCLC came out at 22.3 µM; in the test with A549 NSCLC, 38.4 µM; with SK-MEL-5 melanoma, 27.1 µM; in the test on SW-620 colon, 9.92 µM; with SNB-75 CNS, 29.7 µM; in the test on BT-549 breast, 21.8 µM. For the same compound, the TGI in the test with PC-3 prostate turned out to be 24.4 µM; with CAKI-1 renal, 32.9 µM; in the test with A498 renal it was 44.3 µM.
For the compound `CN1CCOC1(C)CO` (stereo not given), the TGI with RXF 393 renal, in the test with KM12 colon, in the test on SF-268 CNS, with SF-295 CNS, with MDA-N and with HCT-116 colon was above 100 µM each time. For the same compound, the TGI in the test on EKVX NSCLC, in the test on A549 NSCLC, in the test with SK-MEL-5 melanoma, in the test with SW-620 colon, with SNB-75 CNS and with BT-549 breast was above 100 µM in each case. The TGI with PC-3 prostate, in the test with CAKI-1 renal and in the test with A498 renal was above 100 µM in each case.
For `CCN(CC)CCn1nc(N)c2nc3cc(Cl)ccc3nc21`, the TGI in the test on RXF 393 renal, in the test on KM12 colon, in the test with SF-268 CNS, with SF-295 CNS, in the test on MDA-N and with HCT-116 colon was above 100 µM each time. The TGI in the test on EKVX NSCLC was above 100 µM; in the test on A549 NSCLC, above 100 µM; with HCC-2998 colon, above 100 µM; with SK-MEL-5 melanoma, 74.1 µM; with SW-620 colon it was above 100 µM; in the test on BT-549 breast, above 100 µM. Besides, the TGI with PC-3 prostate, in the test with CAKI-1 renal and in the test with A498 renal was above 100 µM throughout.
